Reference: ChEMBL document CHEMBL1138437, “Synthesis and evaluation of novel neamine derivatives effectively targeting to RNA” (Bioorg Med Chem Lett, 2009)
≈ marks a conversion by molar mass, not a printed value.

Tests used:
Staphylococcus aureus = assay: Antibacterial activity against Staphylococcus aureus ATCC 29213 after 18 hrs; assay type: functional; conditions: ATCC 29213, 18 h
Nucleic Acid [1] = assay: Binding affinity to A site of biotinylated 16S rRNA (unknown origin) by surface plasmon resonance analysis; assay type: nucleic-acid assay
Pseudomonas aeruginosa = assay: Antibacterial activity against Pseudomonas aeruginosa ATCC 27853 after 18 hrs; assay type: functional; conditions: ATCC 27853, 18 h
Escherichia coli = assay: Antibacterial activity against Escherichia coli ATCC 25922 after 18 hrs; assay type: functional; conditions: ATCC 25922, 18 h
Nucleic Acid [2] = assay: Binding affinity to biotinylated HIV1 trans-activation response element RNA by surface plasmon resonance analysis; assay type: nucleic-acid assay, Human immunodeficiency virus 1

Row | MIC (Staphylococcus aureus) | Kd (Nucleic Acid [1]) | MIC (Pseudomonas aeruginosa) | MIC (Escherichia coli) | Kd (Nucleic Acid [2]) | SMILES
1 | > 100 µM | 7 µM | 50 µM (≈ 18.2 µg/mL) | 100 µM (≈ 36.4 µg/mL) | 14 µM | NCCN[C@H]1[C@@H](O)[C@H](N)C[C@H](N)[C@@H]1O[C@H]1O[C@H](CN)[C@@H](O)[C@H](O)[C@H]1N
2 | > 100 µM | 2 µM | > 100 µM | 100 µM (≈ 52.1 µg/mL) | 3 µM | N=C(N)NCCC[C@H](N)C(=O)NCCN[C@H]1[C@@H](O)[C@H](N)C[C@H](N)[C@@H]1O[C@H]1O[C@H](CN)[C@@H](O)[C@H](O)[C@H]1N
3 | 25 µM (≈ 12.3 µg/mL) | 1 µM | > 100 µM | 50 µM (≈ 24.6 µg/mL) | 2 µM | NCCCC[C@H](N)C(=O)NCCN[C@H]1[C@@H](O)[C@H](N)C[C@H](N)[C@@H]1O[C@H]1O[C@H](CN)[C@@H](O)[C@H](O)[C@H]1N

Row | SMILES | MIC (Staphylococcus aureus) | Kd (Nucleic Acid [1]) | MIC (Pseudomonas aeruginosa) | MIC (Escherichia coli) | Kd (Nucleic Acid [2])
4 | NC[C@H]1O[C@H](O[C@H]2[C@H](O)[C@@H](O)[C@H](N)C[C@@H]2N)[C@H](N)[C@@H](O)[C@@H]1O [NEAMINE] | 50 µM (≈ 16.1 µg/mL) | 19 µM | > 100 µM | 50 µM (≈ 16.1 µg/mL) | 24 µM
